The numbers were not newly measured in patent publication US20110003005A1, “Methods of Treating PDNV and PONV with Extended Release Ondansetron Compositions” (priority 2009, published 2011), which cites them from elsewhere.

For `Cc1nccn1CC1CCc2c(c3ccccc3n2C)C1=O` (centres unmarked) [ondansetron], where the note is “Pan et al. 2008”, the “effect of ondansetron administered after the 24 h period following surgery” value is listed as “efficacy” and the “effect of oral ondansetron administered in the 24 h period after surgery” value is listed as “no effect”. Besides, the “nausea and vomiting post-discharge, relative to placebo” value (orally administered, Gan et al. 2002) is “did reduce”. Besides, the “improving control of nausea and vomiting in the 24 hour period following surgery” value (orally administered, Kovac et al. 1999) is “ineffective”. For the same molecule, the “orally administered ondansetron versus placebo, nausea and vomiting” value (over a 24 and 72 h period following surgery, Thagaard et al. 2003) was “no difference”.
